≈ marks a conversion by molar mass, not a printed value.
Assays:
[1] = test system: Mycobacterium tuberculosis; experiment: Antitubercular activity against Mycobacterium tuberculosis H37Ra ATCC 25177 assessed as reduction in bacterial growth incubated for 7 days by Alamar blue assay; format: functional; conditions: H37Ra ATCC 25177, 168 h, time 7 day
[2] = Cytotoxicity against african green monkey Vero cells assessed as reduction in cell viability after 72 hrs by MTT assay; format: toxicity, cell-based; conditions: chlorocebus sabaeus
[3] = MRT in ICR mouse at 25 mg/kg, po measured upto 24 hrs by HPLC analysis; format: ADME, organism-based; conditions: in vivo
[4] = target: Voltage-gated inwardly rectifying potassium channel KCNH2 (Homo sapiens, UniProt Q12809); experiment: Inhibition of human ERG expressed in HEK293 cells by whole cell electrophysiology assay; format: toxicity, cell-based
Sequence of Voltage-gated inwardly rectifying potassium channel KCNH2 (Q12809 whole entry): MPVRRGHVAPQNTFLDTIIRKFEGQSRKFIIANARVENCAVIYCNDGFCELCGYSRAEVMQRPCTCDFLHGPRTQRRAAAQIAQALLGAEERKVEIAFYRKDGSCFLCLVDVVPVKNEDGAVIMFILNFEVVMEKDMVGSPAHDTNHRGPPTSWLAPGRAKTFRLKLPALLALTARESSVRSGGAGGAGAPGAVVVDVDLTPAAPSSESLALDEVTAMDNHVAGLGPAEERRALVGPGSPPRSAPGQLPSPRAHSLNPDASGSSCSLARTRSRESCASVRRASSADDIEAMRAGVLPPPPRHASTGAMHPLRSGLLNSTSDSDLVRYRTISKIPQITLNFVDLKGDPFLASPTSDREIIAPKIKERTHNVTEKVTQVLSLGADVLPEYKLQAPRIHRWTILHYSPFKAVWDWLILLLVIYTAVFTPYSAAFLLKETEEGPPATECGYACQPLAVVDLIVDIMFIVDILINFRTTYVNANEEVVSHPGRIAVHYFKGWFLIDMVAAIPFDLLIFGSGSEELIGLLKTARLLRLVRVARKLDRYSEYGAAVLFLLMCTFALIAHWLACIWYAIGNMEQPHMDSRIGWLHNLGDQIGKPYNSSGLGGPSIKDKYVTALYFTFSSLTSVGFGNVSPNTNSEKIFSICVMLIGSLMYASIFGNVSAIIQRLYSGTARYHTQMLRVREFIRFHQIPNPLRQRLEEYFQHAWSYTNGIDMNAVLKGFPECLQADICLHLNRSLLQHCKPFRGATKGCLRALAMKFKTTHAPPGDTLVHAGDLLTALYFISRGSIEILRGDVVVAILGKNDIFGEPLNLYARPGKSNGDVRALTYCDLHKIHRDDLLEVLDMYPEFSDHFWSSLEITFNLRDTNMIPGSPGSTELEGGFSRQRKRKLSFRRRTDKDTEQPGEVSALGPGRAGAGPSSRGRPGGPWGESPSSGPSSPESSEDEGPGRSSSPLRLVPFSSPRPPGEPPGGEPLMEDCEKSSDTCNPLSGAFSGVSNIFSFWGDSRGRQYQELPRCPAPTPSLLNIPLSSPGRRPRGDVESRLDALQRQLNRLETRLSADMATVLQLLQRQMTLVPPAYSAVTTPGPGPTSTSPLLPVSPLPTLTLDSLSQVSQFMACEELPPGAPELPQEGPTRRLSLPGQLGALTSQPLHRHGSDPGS

[5] = Clearance in ICR mouse at 25 mg/kg, po measured upto 24 hrs by HPLC analysis; format: ADME, organism-based; conditions: in vivo
[6] = target: hERG (KCNH2) (Homo sapiens, UniProt Q12809); experiment: Inhibition of human ERG expressed in HEK293 cells at 10 uM by whole cell electrophysiology assay relative to control; format: toxicity, cell-based; conditions: HEK293 cells expressing hERG
Sequence of hERG (KCNH2) (Q12809 whole entry): as above

[7] = Cmax in ICR mouse at 25 mg/kg, po measured upto 24 hrs by HPLC analysis; format: ADME, organism-based; set-up: dose 25 mg/kg, time < 24 hrs, route po; conditions: in vivo
[8] = AUC(0 to infinity) in ICR mouse at 25 mg/kg, po measured upto 24 hrs by HPLC analysis; format: ADME, organism-based; set-up: dose 25 mg/kg, time < 24 hrs, route po; conditions: in vivo
[9] = Tmax in ICR mouse at 25 mg/kg, po measured upto 24 hrs by HPLC analysis; format: ADME, organism-based; conditions: in vivo
[10] = Half life in ICR mouse at 25 mg/kg, po measured upto 24 hrs by HPLC analysis; format: ADME, organism-based; conditions: in vivo
[11] = Volume of distribution in ICR mouse at 25 mg/kg, po measured upto 24 hrs by HPLC analysis; format: ADME, organism-based; conditions: in vivo

Row | Compound | MIC [1] [µg/mL] | further results
1 | COc1ccc(Cc2nnc(NC(=O)c3ccc([N+](=O)[O-])o3)o2)cc1 | 0.02 (≈ 0.0581 µM) | –
2 | O=C(Nc1nnc(-c2ccc(OC(F)(F)F)cc2)o1)c1ccc([N+](=O)[O-])o1 | 1.23 (≈ 3.2 µM) | –
3 | O=C(Nc1nnc(-c2ccccn2)o1)c1ccc([N+](=O)[O-])o1 | 0.03 (≈ 0.0996 µM) | –
4 | O=[N+]([O-])c1ccc(-c2nnc(C3CCCO3)o2)o1 (configuration not stated) | 2 (≈ 7.96 µM) | –
5 | O=[N+]([O-])c1ccc(-c2nnc(C3CCCCC3)o2)o1 | 1.97 (≈ 7.47 µM) | –
6 | O=C(Nc1nnc(C2CCCCC2)o1)c1ccc([N+](=O)[O-])o1 | 0.025 (≈ 0.0816 µM) | –
7 | O=[N+]([O-])c1ccc(-c2nnc(-c3ccc(Br)cc3)o2)o1 | 0.597 (≈ 1.78 µM) | –
8 | COc1ccc(-c2nnc(CNC(=O)c3ccc([N+](=O)[O-])o3)o2)cc1 | 7.07 (≈ 20.5 µM) | –
9 | O=C(Nc1nnc(-c2ccc(C(F)(F)F)cc2)o1)c1ccc([N+](=O)[O-])o1 | 0.999 (≈ 2.71 µM) | –
10 | CCC(CC)c1nnc(-c2ccc([N+](=O)[O-])o2)o1 | 0.911 (≈ 3.63 µM) | –
11 | O=[N+]([O-])c1ccc(-c2nnc(-c3ccc(OC(F)(F)F)cc3)o2)o1 | 0.178 (≈ 0.522 µM) | –
12 | O=C(Nc1nnc(-c2ccc(Br)cc2)o1)c1ccc([N+](=O)[O-])o1 | 0.795 (≈ 2.1 µM) | CC50 at 72 h [2]: 57.3 µg/mL (≈ 151 µM); MRT [3]: 382 min; IC50 [4]: > 10 µM; CL/F [5]: 3.79 mL/min/kg; inhibition at 10 µM [6]: 11.3%; Cmax [7]: 15800 ng/mL; AUC(0-inf) [8]: 110000 ng·h/mL; Tmax [9]: 15 min; half-life [10]: 270 min; Vd [11]: 1.46 L/kg
13 | O=C(NCc1nnc(-c2ccccc2)o1)c1ccc([N+](=O)[O-])o1 | 2.43 (≈ 7.74 µM) | –
14 | CC(C)(C)c1ccc(-c2nnc(NC(=O)c3ccc([N+](=O)[O-])o3)o2)cc1 | > 16 | –
15 | O=C(Nc1nnc(-c2ccncc2)o1)c1ccc([N+](=O)[O-])o1 | 0.038 (≈ 0.126 µM) | –
16 | O=c1nc(N2CCN(CC3CCCCC3)CC2)sc2c([N+](=O)[O-])cc(C(F)(F)F)cc12 [MACOZINONE] | – | CL/F [5]: 279 mL/min/kg; Vd [11]: 56.8 L/kg

Row | Compound | MIC [1] [µg/mL] | further results
17 | O=C(Nc1nnc(-c2ccc(Cl)cc2)o1)c1ccc([N+](=O)[O-])o1 | 0.937 (≈ 2.8 µM) | –
18 | COc1ccc(-c2nnc(-c3ccc([N+](=O)[O-])o3)o2)cc1 | 0.475 (≈ 1.65 µM) | –
19 | O=[N+]([O-])c1ccc(-c2nnc(-c3ccc(C(F)(F)F)cc3)o2)o1 | 0.125 (≈ 0.384 µM) | –
20 | CC(C)(C)c1ccc(-c2nnc(CNC(=O)c3ccc([N+](=O)[O-])o3)o2)cc1 | 4.83 (≈ 13 µM) | CC50 at 72 h [2]: 3.62 µg/mL (≈ 9.79 µM); MRT [3]: 55.2 min; CL/F [5]: 4600 mL/min/kg; Cmax [7]: 139 ng/mL; AUC(0-inf) [8]: 99.3 ng·h/mL; Tmax [9]: 15 min; half-life [10]: 40.2 min; Vd [11]: 227 L/kg
21 | CC(C)c1nnc(-c2ccc([N+](=O)[O-])o2)o1 | 0.709 (≈ 3.18 µM) | –
22 | O=C(NCc1nnc(-c2ccc(OC(F)(F)F)cc2)o1)c1ccc([N+](=O)[O-])o1 | 9.86 (≈ 24.8 µM) | CC50 at 72 h [2]: 3.48 µg/mL (≈ 8.74 µM)
23 | CC(C)(C)c1ccc(-c2nnc(-c3ccc([N+](=O)[O-])o3)o2)cc1 | 0.06 (≈ 0.192 µM) | –
24 | O=C(NCc1nnc(-c2ccc(C(F)(F)F)cc2)o1)c1ccc([N+](=O)[O-])o1 | 3.73 (≈ 9.75 µM) | CC50 at 72 h [2]: 3.56 µg/mL (≈ 9.32 µM)
25 | COc1ccc(-c2nnc(NC(=O)c3ccc([N+](=O)[O-])o3)o2)cc1 | 0.191 (≈ 0.578 µM) | –
26 | CO[C@H]1/C=C/O[C@@]2(C)Oc3c(C)c(O)c4c(O)c(c(/C=N/N5CCN(C)CC5)c(O)c4c3C2=O)NC(=O)/C(C)=C\C=C\[C@H](C)[C@H](O)[C@@H](C)[C@@H](O)[C@@H](C)[C@H](OC(C)=O)[C@@H]1C [RIFAMPIN] | > 16 | –
27 | NNC(=O)c1ccncc1 [ISONIAZID] | > 16 | –
28 | O=C(Nc1nnc(C2CCCO2)o1)c1ccc([N+](=O)[O-])o1 (configuration not stated) | 0.007 (≈ 0.0238 µM) | –
29 | O=C(Nc1nnc(-c2ccc(F)cc2)o1)c1ccc([N+](=O)[O-])o1 | 2.47 (≈ 7.77 µM) | –
30 | O=[N+]([O-])c1ccc(-c2nnc(-c3ccccc3)o2)o1 | 1.59 (≈ 6.17 µM) | –
31 | O=C(Nc1nnc(-c2cccnc2)o1)c1ccc([N+](=O)[O-])o1 | 0.037 (≈ 0.123 µM) | –

Reference: ChEMBL document CHEMBL5143540, “Design, synthesis and biological evaluation of nitrofuran-1,3,4-oxadiazole hybrids as new antitubercular agents” (Bioorg Med Chem, 2022)
